Data from patent publication EP3800188A1, “SUBSTITUTED PYRAZOLOPYRIMIDINES AS IRAK4 INHIBITORS” (Bayer AG, priority 2019, dated 2021).

How the values were obtained:
human IRAK4 = target: T1, human IRAK4 (Homo sapiens, UniProt Q9NWZ3); assay: Human IRAK4 kinase activity inhibition assay (IRAK4 TR-FRET assay); assay type: biochemical; details: 1 mM ATP, GST-human IRAK4, average or median values
T1 construct: GST (N); made in house; host or cells: baculovirus-infected Hi5 (BTI-TN-5B1-4) insect cells
T1 sequence (Q9NWZ3 1-460): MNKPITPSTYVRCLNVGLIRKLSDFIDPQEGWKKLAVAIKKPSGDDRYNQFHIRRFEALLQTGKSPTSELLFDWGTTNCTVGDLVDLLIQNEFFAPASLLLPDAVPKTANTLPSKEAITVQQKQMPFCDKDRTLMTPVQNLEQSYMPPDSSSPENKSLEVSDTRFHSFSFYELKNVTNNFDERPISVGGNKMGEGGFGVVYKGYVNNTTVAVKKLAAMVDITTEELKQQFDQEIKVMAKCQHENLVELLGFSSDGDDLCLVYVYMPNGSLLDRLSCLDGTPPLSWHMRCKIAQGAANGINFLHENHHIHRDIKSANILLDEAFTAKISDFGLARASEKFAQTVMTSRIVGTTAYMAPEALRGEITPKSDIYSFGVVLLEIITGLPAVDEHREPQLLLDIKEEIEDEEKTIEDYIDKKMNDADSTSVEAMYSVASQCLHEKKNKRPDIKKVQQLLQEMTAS
Summary of the method: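 GST-IRAK4 from insect cells (about 0.2 nM, linear range) was preincubated 15 min with compound (11 concentrations, 20 µM–0.073 nM) in HEPES pH 7.5 with MgCl2 and DTT before kinase reaction on a biotinylated peptide. Phosphopeptide was detected by TR-FRET (Eu anti-mouse-IgG/anti-phosphoserine/streptavidin-XL665, 1 h at 22°C) as the 665/620 nm ratio, normalized to no-compound and no-enzyme controls.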

[1] = Metabolic stability in human liver microsomes; details: 1 µM compound; for CLblood, human microsomes: hepatic in vivo blood clearance calculated with well stirred liver model, '(stable)' given beside < 0.01; for Fmax, human microsomes: maximal oral bioavailability calculated with well stirred liver model, 0.5 mg/mL protein, '(stable)' given beside 100
Experimental: The in vitro metabolic stability of test compounds was determined by incubating them at 1 µM in a suspension liver microsomes in 100 mM phosphate buffer, pH7.4 (NaH2PO4 x H2O + Na2HPO4 x 2H2O) and at a protein concentration of 0.5 mg/mL at 37° C. The microsomes were activated by adding a co-factor mix containing 8 mM Glukose-6-Phosphat, 4 mM MgCl2, 0.5 mM NADP and 1 IU/mL G-6-P-Dehydrogenase in phosphate buffer, pH 7.4. The metabolic assay was started shortly afterwards by adding the test compound to the incubation at a final volume of 1 mL. Organic solvent in the incubations was limited to ≤0.01 % dimethylsulfoxide (DMSO) and ≤1% acetonitril. During incubation, the microsomal suspensions were continuously shaken at 580 rpm, and aliquots were taken at 2, 8, 16, 30, 45 and 60 min, to which equal volumes of cold methanol were immediately added. Samples were frozen at -20° C over night, subsequently centrifuged for 15 min at 3000 rpm and the supernatant was analyzed with an Agilent 1200 HPLC-system with LCMS/MS detection.
The half-life of a test compound was determined from the concentration-time plot. From the half-life the intrinsic clearances were calculated. Together with the additional parameters liver blood flow, specific liver weight and microsomal protein content the hepatic in vivo blood clearance (CL) and the maximal oral bioavailability (Fmax) were calculated using the "well stirred" liver model. The following parameter values were used: Liver blood flow - 1.32 L/h/kg (human), 2.1 L/h/kg (dog); specific liver weight - 21 g/kg (human), 39 g/kg (dog); microsomal protein content - 40 mg/g.

O=S1(=O)C[C@H](Nc2nc(N3CC(N4CCOCC4)C3)c3cnn(-c4cccc(C(F)(F)F)c4)c3n2)[C@@H](O)C1 (relative stereo) [Example I-37, rel-(3R,4R)-4-({4-[3-(morpholin-4-yl)azetidin-1-yl]-1-[3-(trifluoromethyl)phenyl]-1H-pyrazolo[3,4-d]pyrimidin-6-yl}amino)tetrahydrothiophene-3-ol 1,1-dioxide]
IC50 (human IRAK4): 11.5 nM | CLblood, human microsomes [1]: 0.83 mL/min/kg | Fmax, human microsomes [1]: 97%

C[C@H]1CN(c2nc(N[C@H]3C[C@H](S(C)(=O)=O)C3)nc3c2cnn3-c2cccc(C(F)F)c2)C[C@@H]1O (relative stereo) [II-17-1, rel-(3R,4S)-1-(1-[3-(difluoromethyl)phenyl]-6-{[trans-3-(methylsulfonyl)cyclobutyl]-amino}-1H-pyrazolo[3,4-d]pyrimidin-4-yl)-4-methylpyrrolidin-3-ol]
IC50 (human IRAK4): 2.64 nM | CLblood, human microsomes [1]: 1.67 mL/min/kg | Fmax, human microsomes [1]: 93%

O=C(O)CC1CN(c2nc(NC3CCS(=O)(=O)CC3)nc3c2cnn3-c2cccc(C(F)F)c2)C1 [II-9, (1-{1-[3-(difluoromethyl)phenyl]-6-[(1,1-dioxidotetrahydro-2H-thiopyran-4-yl)amino]-1H-pyrazolo[3,4-d]pyrimidin-4-yl}azetidin-3-yl)acetic acid]
IC50 (human IRAK4): 84.9 nM

CS(=O)(=O)N1CC(Nc2nc(N3CC(N4CCOCC4)C3)c3cnn(-c4cccc(C(F)F)c4)c3n2)C1 [II-13, 1-[3-(difluoromethyl)phenyl]-N-[1-(methylsulfonyl)azetidin-3-yl]-4-[3-(morpholin-4-yl)azetidin-1-yl]-1H-pyrazolo[3,4-d]pyrimidin-6-amine]
IC50 (human IRAK4): 13.3 nM

O=S1(=O)CCC(Nc2nc(N3CCC(O)(C(F)(F)F)C3)c3cnn(-c4cccc(C(F)F)c4)c3n2)CC1 (stereo not drawn) [II-15, 1-{1-[3-(difluoromethyl)phenyl]-6-[(1,1-dioxidotetrahydro-2H-thiopyran-4-yl)amino]-1H-pyrazolo[3,4-d]pyrimidin-4-yl}-3-(trifluoromethyl)pyrrolidin-3-ol]
IC50 (human IRAK4): 45.2 nM

CS(=O)(=O)N1CC(Nc2nc(N3C[C@H](O)[C@@H](F)C3)c3cnn(-c4cccc(C(F)F)c4)c3n2)C1 [II-22, (3S,4S)-1-(1-[3-(difluoromethyl)phenyl]-6-{[1-(methylsulfonyl)azetidin-3-yl]amino}-1H-pyrazolo[3,4-d]pyrimidin-4-yl)-4-fluoropyrrolidin-3-ol]
IC50 (human IRAK4): 45.3 nM

CS(=O)(=O)N1CC(Nc2nc(N3C[C@@H](O)[C@H](F)C3)c3cnn(-c4cccc(C(F)F)c4)c3n2)C1 [II-23, (3R,4R)-1-(1-[3-(difluoromethyl)phenyl]-6-{[1-(methylsulfonyl)azetidin-3-yl]amino}-1H-pyrazolo[3,4-d]pyrimidin-4-yl)-4-fluoropyrrolidin-3-ol]
IC50 (human IRAK4): 16.2 nM

O[C@H]1C[C@H](Nc2nc(N3CC(N4CCOCC4)C3)c3cnn(-c4cccc(C(F)F)c4)c3n2)C1 [II-25, trans-3-({1-[3-(difluoromethyl)phenyl]-4-[3-(morpholin-4-yl)azetidin-1-yl]-1H-pyrazolo-[3,4-d]pyrimidin-6-yl}amino)cyclobutanol]
IC50 (human IRAK4): 6.15 nM

CC(C)(C(=O)O)C1CN(c2nc(NC3CCS(=O)(=O)CC3)nc3c2cnn3-c2cccc(C(F)F)c2)C1 [II-26, 2-(1-{1-[3-(difluoromethyl)phenyl]-6-[(1,1-dioxidotetrahydro-2H-thiopyran-4-yl)amino]-1H-pyrazolo[3,4-d]pyrimidin-4-yl}azetidin-3-yl)-2-methylpropanoic acid]
IC50 (human IRAK4): 73.6 nM

CCS(=O)(=O)N1CC(Nc2nc(N3CC(CC(C)(C)O)C3)c3cnn(-c4cccc(C(F)F)c4)c3n2)C1 [II-28, 1-[1-(1-[3-(difluoromethyl)phenyl]-6-{[1-(ethylsulfonyl)azetidin-3-yl]amino}-1H-pyrazolo[3,4-d]pyrimidin-4-yl)azetidin-3-yl]-2-methylpropan-2-ol]
IC50 (human IRAK4): 40 nM

C[C@@]1(O)CCN(c2nc(NC3CN(S(C)(=O)=O)C3)nc3c2cnn3-c2cccc(C(F)F)c2)C1 [II-29, (3R)-1-(1-[3-(difluoromethyl)phenyl]-6-{[1-(methylsulfonyl)azetidin-3-yl]amino}-1H-pyrazolo[3,4-d]pyrimidin-4-yl)-3-methylpyrrolidin-3-ol]
IC50 (human IRAK4): 67.1 nM

CC(C)(O)C1CCN(c2nc(NC3CN(S(=O)(=O)C4CC4)C3)nc3c2cnn3-c2cccc(C(F)F)c2)CC1 [II-30, 2-[1-(6-{[1-(cyclopropylsulfonyl)azetidin-3-yl]amino}-1-[3-(difluoromethyl)phenyl]-1H-pyrazolo[3,4-d]pyrimidin-4-yl)piperidin-4-yl]propan-2-ol]
IC50 (human IRAK4): 16.2 nM

CCS(=O)(=O)N1CC(Nc2nc(N3CC(N4CCOCC4)C3)c3cnn(-c4cccc(C(F)F)c4)c3n2)C1 [II-32, 1-[3-(difluoromethyl)phenyl]-N-[1-(ethylsulfonyl)azetidin-3-yl]-4-[3-(morpholin-4-yl)azetidin-1-yl]-1H-pyrazolo[3,4-d]pyrimidin-6-amine]
IC50 (human IRAK4): 56.7 nM

O[C@@H]1CCN(c2nc(N[C@H]3C[C@H](O)C3)nc3c2cnn3-c2cccc(C(F)F)c2)C1 [II-33, (3R)-1-(1-[3-(difluoromethyl)phenyl]-6-{[(1r,3R)-3-hydroxycyclobutyl]amino}-1H-pyrazolo[3,4-d]pyrimidin-4-yl)pyrrolidin-3-ol]
IC50 (human IRAK4): 16.5 nM

CC(C)(O)CC1CN(c2nc(N[C@H]3C[C@@]4(CCN4)C3)nc3c2cnn3-c2cccc(C(F)F)c2)C1 [II-36, 1-(1-{6-[(4r,6s)-1-azaspiro[3.3]heptan-6-ylamino]-1-[3-(difluoromethyl)phenyl]-1H-pyrazolo[3,4-d]pyrimidin-4-yl}azetidin-3-yl)-2-methylpropan-2-ol]
IC50 (human IRAK4): 2.76 nM

CC(C)(O)C1CCN(c2nc(N[C@@H]3CNC(=O)C3)nc3c2cnn3-c2cccc(OC(F)(F)F)c2)CC1 [III-1, (4S)-4-({4-[4-(2-hydroxypropan-2-yl)piperidin-1-yl]-1-[3-(trifluoromethoxy)phenyl]-1H-pyrazolo[3,4-d]pyrimidin-6-yl}amino)pyrrolidin-2-one]
IC50 (human IRAK4): 19.1 nM

CS(=O)(=O)[C@H]1C[C@H](Nc2nc(N3C[C@H](O)[C@@H](F)C3)c3cnn(-c4cccc(OC(F)F)c4)c3n2)C1 [IV-5, (3S,4S)-1-(1-[3-(difluoromethoxy)phenyl]-6-{[trans-3-(methylsulfonyl)cyclobutyl]amino}-1H-pyrazolo[3,4-d]pyrimidin-4-yl)-4-fluoropyrrolidin-3-ol]
IC50 (human IRAK4): 11.2 nM

CS(=O)(=O)N1CC(Nc2nc(N3C[C@H](O)[C@@H](F)C3)c3cnn(-c4cccc(OC(F)F)c4)c3n2)C1 [IV-6, (3S,4S)-1-(1-[3-(difluoromethoxy)phenyl]-6-{[1-(methylsulfonyl)azetidin-3-yl]amino}-1H-pyrazolo[3,4-d]pyrimidin-4-yl)-4-fluoropyrrolidin-3-ol]
IC50 (human IRAK4): 193 nM

O=S1(=O)CCC(Nc2nc(N3C[C@H](O)[C@@H](F)C3)c3cnn(-c4cccc(OC(F)F)c4)c3n2)CC1 [IV-7, (3S,4S)-1-{1-[3-(difluoromethoxy)phenyl]-6-[(1,1-dioxidotetrahydro-2H-thiopyran-4-yl)amino]-1H-pyrazolo[3,4-d]pyrimidin-4-yl}-4-fluoropyrrolidin-3-ol]
IC50 (human IRAK4): 46.4 nM

CN1CC[C@H](Nc2nc(N3CCC(C(C)(C)O)CC3)c3cnn(-c4cccc(C(C)(C)O)c4)c3n2)C1 [VI-1, 2-[1-(1-[3-(2-hydroxypropan-2-yl)phenyl]-6-{[(3S)-1-methylpyrrolidin-3-yl]amino}-1H-pyrazolo[3,4-d]pyrimidin-4-yl)piperidin-4-yl]propan-2-ol]
IC50 (human IRAK4): 77.3 nM
